Experimental data from patent publication US20230203029A1 (priority 2020, published 2023).

Key:
[1] = target: T1, human MERTK cytoplasmic domain (Homo sapiens, UniProt Q12866); test: biochemical; conditions: 30 uM ATP; read-out: Assay 1a Mer IC50 30 uM ATP
T1 construct: human MERTK cytoplasmic domain (Carna Biosciences 08-108); purchased Carna Biosciences 08-108
Procedure: Assay 1a—MERTK HTRF KinEASE-TK Assay
The enzymatic reaction was carried out for 30 min at room temperature. 10 μL TK Antibody-Cryptate/Streptavidin-XL665 (Cisbio 610SAXLG) was then added for 60 min, including EDTA containing detection buffer (Cisbio 62SDBRDF) to stop the reaction.

[2] = target: T2, human AXL cytoplasmic domain (Homo sapiens, UniProt P30530); test: Assay 1b AXL HTRF KinEASE-TK assay; assay type: biochemical
T2 construct: human AXL cytoplasmic domain (Thermo Fisher A31515); purchased Thermo Fisher A31515
T2 sequence (P30530 473-894 limits assumed): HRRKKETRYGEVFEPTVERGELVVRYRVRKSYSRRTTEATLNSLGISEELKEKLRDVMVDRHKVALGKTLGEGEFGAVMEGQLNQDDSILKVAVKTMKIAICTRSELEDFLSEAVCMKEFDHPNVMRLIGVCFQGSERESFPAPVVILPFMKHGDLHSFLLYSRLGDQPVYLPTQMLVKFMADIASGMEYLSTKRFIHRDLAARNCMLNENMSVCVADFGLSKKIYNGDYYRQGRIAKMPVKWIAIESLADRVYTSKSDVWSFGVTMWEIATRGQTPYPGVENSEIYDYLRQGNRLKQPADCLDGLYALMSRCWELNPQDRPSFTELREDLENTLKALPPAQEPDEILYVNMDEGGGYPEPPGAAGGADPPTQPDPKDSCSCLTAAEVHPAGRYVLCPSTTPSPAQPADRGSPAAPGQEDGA
Procedure: Assay 1b—AXL HTRF KinEASE-TK Assay
Compound inhibition of human AXL cytoplasmic domain (Thermo Fisher A31515) enzymatic activity was tested via the HTRF KinEASE-tyrosine kinase (TK) kit (Cisbio 62TK0PEC). Experiments were performed in 20 μl enzymatic buffer (Cisbio 62EZBFDD) supplemented with 5 mM MgCl2, 1 mM MnCl2, 1 mM DTT, 50 nM SEB (Cisbio, 61SEBALB), with 5 nM of AXL and the test compounds of interest. […] The enzymatic reaction was carried out for 30 min at room temperature. 10 μL TK Antibody-Cryptate/Streptavidin-XL665 (Cisbio 610SAXLG) was then added for 60 min, including EDTA containing detection buffer (Cisbio 62SDBRDF) to stop the reaction. The plate was read on a BMG Pherastar FSX using a HTRF 337/620/665 optical module to excite the terbium donor at 337 nm, and record donor emission at 620 nm and acceptor fluorophore emission at 665 nm. From this the FRET ratio (acceptor 665 nm/donor 620 nm) for each data point was calculated. […] Competition curves were then fit to a 4 parameter logistic equation including a variable slope factor to determine the IC50 (compound concentration that inhibits 50% of AXL activity).

[3] = target: T3, Ba/F3 Pro B-cell line expressing TEL-human MERTK fusion domain (Homo sapiens, UniProt Q12866); assay type: cell-based; conditions: cell survival, 48 h, CellTiter-Glo; read-out: TEL-MERTK Ba/F3 IC50
T3 sequence (Q12866 587-858 limits assumed): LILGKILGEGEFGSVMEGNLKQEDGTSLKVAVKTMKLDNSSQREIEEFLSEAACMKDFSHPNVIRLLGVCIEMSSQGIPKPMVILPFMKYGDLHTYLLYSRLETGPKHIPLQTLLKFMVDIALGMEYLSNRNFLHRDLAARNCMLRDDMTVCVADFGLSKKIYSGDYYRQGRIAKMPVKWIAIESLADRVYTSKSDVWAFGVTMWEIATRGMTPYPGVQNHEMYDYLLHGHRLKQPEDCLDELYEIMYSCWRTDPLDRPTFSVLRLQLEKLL
Procedure: (§1) Assay 5—Ba/F3 Cell Survival Assays.
(§2) The inhibitory potencies of compounds were assessed in a Ba/F3 cell survival assay, using the Ba/F3 Pro B-cell line, recombinantly expressing a BCR-human AXL kinase domain fusion protein (pACD320/AXL, Advanced Cellular Dynamics Inc), TEL-human MERTK fusion domain (pACD1000/MERTK, Advanced Cellular Dynamics Inc), TEL-human Tyro3 fusion domain (pACD1000/TYRO3, Advanced Cellular Dynamics Inc), or control TEL-none (ACD320, Advanced Cellular Dynamics Inc) BRC-none constructs (ACD1000, Advanced Cellular Dynamics Inc). 10 ng/mL recombinant murine IL3 (R&D, 403-ML-010) was included in the media when propagating negative control TEL-none or BCR-none lines only. […] The final assay DMSO concentration was 0.25%. Compound incubations were conducted for 48 h at 37° C./5% CO2, after which cell plate was equilibrated at room temperature for 20 minutes prior to assessing viability. 15 μl of Promega CellTiter-Glo reagent (G7572) was added to each well for 2 min on an orbital shaker to induce cell lysis.
The plate was then equilibrated for 5 min at room temperature and luminescence read on a BMG Pherastar FSX using the LUM plus optic module. […] Competition curves were then fit to a 4 parameter logistic equation including a variable slope factor to determine the IC50 (compound concentration causing a half-maximal inhibition of cell survival).

[4] = target: T4, Ba/F3 Pro B-cell line expressing TEL-human Tyro3 fusion domain (Homo sapiens, UniProt Q06418); assay type: cell-based; conditions: cell survival, 48 h, CellTiter-Glo
T4 sequence (Q06418 518-790 limits assumed): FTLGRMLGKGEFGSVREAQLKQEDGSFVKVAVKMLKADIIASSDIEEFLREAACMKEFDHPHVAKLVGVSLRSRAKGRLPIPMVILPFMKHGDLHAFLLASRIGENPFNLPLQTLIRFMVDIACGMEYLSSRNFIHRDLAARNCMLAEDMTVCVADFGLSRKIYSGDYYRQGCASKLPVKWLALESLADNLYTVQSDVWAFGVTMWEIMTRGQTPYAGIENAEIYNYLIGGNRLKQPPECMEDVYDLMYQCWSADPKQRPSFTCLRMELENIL
Procedure: as §1
as §2, with “only. Cells were maintained in RMPI 1640 (Corning 15-040-CV) culture media containing 10% heat inactivated semi-synthetic FBS (RMBIO FGR-BBT), 2 mM L-Glutamine (Sigma, G7513), 100 IU/mL Penicillin-[…] Streptomycin (Sigma, P4333), and 500 ng/mL Puromycin (Sigma, P8833). Experiments were performed in 50 μl growth media, including the test compounds of interest, and dispensing 5000 cells/well in logarithmic-phase growth into a 384 well white Optiplate (Perkin Elmer 6007299).” for “only.”
The plate was then equilibrated for 5 min at room temperature and luminescence read on a BMG Pherastar FSX using the LUM plus optic module. Data were normalised to measurements in the absence of competing compound (0% inhibition). Competition curves were then fit to a 4 parameter logistic equation including a variable slope factor to determine the IC50 (compound concentration causing a half-maximal inhibition of cell survival).

T1 sequence (Q12866 527-999): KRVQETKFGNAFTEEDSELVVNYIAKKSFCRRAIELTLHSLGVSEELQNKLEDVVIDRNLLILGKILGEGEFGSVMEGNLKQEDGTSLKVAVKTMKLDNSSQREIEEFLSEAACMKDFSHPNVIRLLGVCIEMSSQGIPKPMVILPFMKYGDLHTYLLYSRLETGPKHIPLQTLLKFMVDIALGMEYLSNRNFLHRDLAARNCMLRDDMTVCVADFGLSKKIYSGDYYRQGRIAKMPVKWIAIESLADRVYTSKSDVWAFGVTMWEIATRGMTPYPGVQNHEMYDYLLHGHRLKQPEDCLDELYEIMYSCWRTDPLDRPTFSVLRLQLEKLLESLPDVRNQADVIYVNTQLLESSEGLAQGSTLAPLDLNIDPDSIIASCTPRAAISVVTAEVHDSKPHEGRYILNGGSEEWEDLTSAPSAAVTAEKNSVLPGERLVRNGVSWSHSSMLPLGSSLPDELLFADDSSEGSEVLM

For O=C(Nc1ccc(Nc2ccnc3cnc(C(=O)N4CCC4)cc23)cc1)c1cccn(-c2ccccc2)c1=O [Example 5.4, N-[4-[[6-(azetidine-1-carbonyl)-1,7-naphthyridin-4-yl]amino]phenyl]-2-oxo-1-phenyl-pyridine-3-carboxamide], the IC50 [1] was 535 nM.

Work on CC(C)n1cc(C(=O)Nc2ccc(Nc3ccnc4cnc(C(=O)NOCCO)cc34)cc2)c(=O)n(-c2ccc(F)cc2)c1=O [Example 7, 4-[4-[[3-(4-fluorophenyl)-1-isopropyl-2,4-dioxo-pyrimidine-5-carbonyl]amino]anilino]-N-(2-hydroxyethoxy)-1,7-naphthyridine-6-carboxamide] yielded an IC50 [1] of 392 nM.

Work on CC(C)n1cc(C(=O)Nc2ccc(Nc3ccnc4cnc(C(=O)NCCN(C)C)cc34)cc2)c(=O)n(-c2ccc(F)cc2)c1=O [Example 7.1, N-[2-(dimethylamino)ethyl]-4-[4-[[3-(4-fluorophenyl)-1-isopropyl-2,4-dioxo-pyrimidine-5-carbonyl]amino]anilino]-1,7-naphthyridine-6-carboxamide] yielded an IC50 [1] of 54 nM.

In the case of CN1CCC(NC(=O)c2cc3c(Oc4ccc(NC(=O)c5cccn(-c6ccccn6)c5=O)cc4)ccnc3cn2)CC1 [Example 8, N-(1-methyl-4-piperidyl)-4-[4-[[2-oxo-1-(2-pyridyl)pyridine-3-carbonyl]amino]phenoxy]-1,7-naphthyridine-6-carboxamide], the IC50 [1] is reported as 154 nM.

Work on Cc1c(C(=O)Nc2ccc(Oc3ccnc4cnc(C(=O)NC5CCN(C)CC5)cc34)cc2)c(=O)n(-c2ccccc2)n1C [Example 8.3, 4-[4-[(1,5-Dimethyl-3-oxo-2-phenyl-pyrazole-4-carbonyl)amino]phenoxy]-N-(1-methyl-4-piperidyl)-1,7-naphthyridine-6-carboxamide] yielded an IC50 [1] of 133 nM.

Cc1c(C(=O)Nc2ccc(Oc3ccnc4cnc(C(=O)NC5CCN(C)CC5)cc34)cc2)c(=O)n(-c2ccccc2)n1CC(C)(C)O [Example 8.4, 4-[4-[[1-(2-hydroxy-2-methyl-propyl)-5-methyl-3-oxo-2-phenyl-pyrazole-4-carbonyl]amino]phenoxy]-N-(1-methyl-4-piperidyl)-1,7-naphthyridine-6-carboxamide] gave an IC50 [1] of 245 nM.

CN1CCN(c2cc3c(Oc4ccc(NC(=O)c5cccn(-c6ccc(F)cc6)c5=O)nc4)ccnc3cn2)CC1 [Example 10.1, 1-(4-fluorophenyl)-N-[5-[[6-(4-methylpiperazin-1-yl)-1,7-naphthyridin-4-yl]oxy]-2-pyridyl]-2-oxo-pyridine-3-carboxamide] was tested, and the IC50 [1] was 6 nM, the IC50 [2] was 14 nM and the IC50 [3] was 16 nM. The IC50 [4] was 119 nM.

O=C(Nc1ccc(Oc2ccnc3cnc(N4CCNCC4)cc23)cc1)c1cccn(-c2ccccn2)c1=O [Example 12.1, 2-oxo-N-[4-[(6-piperazin-1-yl-1,7-naphthyridin-4-yl)oxy]phenyl]-1-(2-pyridyl)pyridine-3-carboxamide] was tested, and the IC50 [1] was 722 nM.

O=C(Nc1ccc(Oc2ccnc3cnc(N4CCNCC4)cc23)cc1)c1c[nH]cc(-c2ccc(F)cc2)c1=O [Example 12.7, 5-(4-fluorophenyl)-4-oxo-N-[4-[(6-piperazin-1-yl-1,7-naphthyridin-4-yl)oxy]phenyl]-1H-pyridine-3-carboxamide] gave an IC50 [1] of 16 nM and an IC50 [2] of 36 nM.

Compound Cc1c(C(=O)Nc2ccc(Oc3ccnc4cnc(N5CCNCC5)cc34)cc2)c(=O)n(-c2ccccc2)n1C [Example 12.8, 1,5-dimethyl-3-oxo-2-phenyl-N-[4-[(6-piperazin-1-yl-1,7-naphthyridin-4-yl)oxy]phenyl]pyrazole-4-carboxamide] has an IC50 [1] of 134 nM.

Compound O=C(Nc1ccc(Oc2ccnc3cnc(C4CCN(C5COC5)CC4)cc23)cn1)c1cccn(-c2ccc(F)cc2)c1=O [Example 16.3, 1-(4-fluorophenyl)-N-[5-[[6-[1-(oxetan-3-yl)-4-piperidyl]-1,7-naphthyridin-4-yl]oxy]-2-pyridyl]-2-oxo-pyridine-3-carboxamide] has an IC50 [1] of 1 nM, an IC50 [2] of 3 nM and an IC50 [3] of 14 nM. It also gave an IC50 [4] of 271 nM.

CN1CCC(NC(=O)c2cc3c(Oc4cnc(NC(=O)c5cccn(-c6ccc(F)cc6)c5=O)nc4)ccnc3cn2)CC1 [Example 19, 4-[2-[[1-(4-Fluorophenyl)-2-oxo-pyridine-3-carbonyl]amino]pyrimidin-5-yl]oxy-N-(1-methyl-4-piperidyl)-1,7-naphthyridine-6-carboxamide] showed an IC50 [1] of 137 nM.

For CC(C)n1cc(C(=O)Nc2ccc(Oc3ccnc4cnc(C5CCN(C)CC5)cc34)cn2)c(=O)n(-c2ccc(F)cc2)c1=O [Example 23.1, 3-(4-fluorophenyl)-1-isopropyl-N-[5-[[6-(1-methyl-4-piperidyl)-1,7-naphthyridin-4-yl]oxy]-2-pyridyl]-2,4-dioxo-pyrimidine-5-carboxamide], the IC50 [1] was 13 nM, the IC50 [3] was 15 nM and the IC50 [4] was 568 nM.
